Square brackets hold non-standard residues; d marks the D form. Ends that are not written are not given here. Peptide text beside a SMILES is read from it. Cha = N[C@@H](CC1CCCCC1)C(=O)O
Columns and labels:
[1] = Visual inspection of 10 mM DMSO stocks (solubility); type: physicochemical; details: 10 mM in DMSO (Suppl Fig 1e)
[2] = test system: T1, human 20S proteasome (h20S); assay: h20S stimulation, hydrolysis of suc-LLVY-amc (chymotryptic-like activity); type: biochemical
T1 construct: purchased Proteasome Center
Experimental: Human 20S (h20S) (final concentration of 4 nM) was incubated in the presence or absence of activators (peptides, 0.2–600 μM; MBP 0.2–400 μM; PA26, 0.04–3500 nM) at ambient temperature for 5 min. Substrate (suc-LLVY-amc, 10 μM; boc-LRR-amc, 20 μM; or FAM-LFP, 100 nM) was added immediately before reading. Fluorescence intensity of suc-LLVY-amc and boc-LRR-amc (excitation, 355 nm; emission, 440 nm; cutoff 435 nm) or FAM-LFP (excitation, 490 nm; emission, 520 nm; cutoff, 515 nm) were monitored at 30 to 60 s intervals for 30 min at 25 °C using a Spectramax M5 microplate reader (Molecular Devices; SoftMax Pro 6.5.1). The hydrolysis rate was calculated from the slope of the curve between 100 and 500 s (500 and 1000 s for boc-LRR-amc) in arbitrary units (RFU per s).
Data were processed and fit in GraphPad Prism 8.1.2. The baseline hydrolysis was normalized to the total mean activity for the lowest concentration of every activator assayed in a given plate and the maximal hydrolysis was normalized as reported. The normalized activity was plotted relative to log10(activator). Data was fit to the model for log(agonist) versus response (variable slope). In Eq. (1), X = log[activator, μM] except for PA26-based activators, which are in nanomolar.1 Y=Bottom+(Top−Bottom)/1+10^((logEC50−X)×Hillslope)

Row | solubility of DMSO stock, visual [1] | improvement of potency relative to Opt5^YY ([2]; ratio of EC50) | stimulation of h20S, result in words ([2]; suc-LLVY-amc turnover) | Molecule
1 | insoluble |  |  | ANLQYFA [hRpt5-YP2F]
2 |  | ~ 2 fold | completely inactivated | CC(C)C[C@H](NC(=O)[C@@H](N)CC(N)=O)C(=O)N[C@@H](CO)C(=O)N[C@@H](Cc1ccc(O)cc1)C(=O)N[C@@H](CC1CCCCC1)C(=O)N[C@H](C(=O)O)[C@@H](C)O [Opt5^Y4] (H-NLSY[Cha]T-OH; N-terminus and C-terminus assumed)
